pIC50: −log10 of the molar value.
Assays:
KRAS G12C = molecular target: T1, KRAS G12C (Homo sapiens, UniProt P01116, G12C); assay: SOS1 catalyzed nucleotide exchange assay (TR-FRET); format: biochemical; conditions: GDP-loaded HIS-KRAS(G12C), 1 hour pre-incubation with compound
T1 construct: HIS-KRAS (G12C, aa 2-185, Sino biological); purchased Sino biological
Description: 1. SOS1 Catalyzed Nucleotide Exchange Assay
HIS-KRAS (G12C, aa 2-185, Sino biological) was diluted to […] EDTA buffer (20 mM HEPES, pH 7.4, 50 mM NaCl, 10 mM EDA, 0.01% (v/v) Tween-20) and incubated for 30 min at 25° C. The EDTA pretreated HIS-KRAS(G12C) was diluted to 12 nM in assay buffer (25 mM HEPES, pH 7.4, 120 mM NaCl, 5 mM MgCl2, 1 mM DTI, 0.01% (v/v) Tween 20, 0.1% (w/v) BSA) containing 120 nM GDP(Sigma) and Mab Anti 6HIS-Tb cryptate Gold(Cisbio) and incubated for 1 hour at 25° C. to prepare GDP-loaded HIS-KRAS(G12C). The GDP-loaded HIS-KRAS(G12C) was pre-incubation with diluted compounds in a 384-well plate (Greiner) for 1 hour, then purified SOS 1ExD (Flag tag, aa 564-1049) and BODIPY™FL GTP (Invitrogen) were added to the assay wells (Final concentration: 3 nM HIS-KRAS(G12C), 2 μM SOS1 ExD, 80 nM BODIPY™FL GTP, 21 ng/mL MAb Anti 6HS-Tb cryptate Gold) and incubated for 4 hours at 25° C. TR-FRET signals were then read on Tecan Spark multimode microplate reader. The parameters were F486: Excitation 340 (35) nm, Emission 486 (10) nm, Lag time 100 μs, Integration time […]; F515: Excitation 340 (35) nm, Emission 515 (10) nm, Lag time […], Integration time 200 s. TR-FRET ratios for each individual wells were calculated by equation: TR-FRET ratio=(Signal F515/Signal F486)*10000. Then the data were analyzed using a 4-parameter logistic model to calculate IC50 values.

[1] = tested on: Phospho-ERK1/2(THR202/TYR204) in NCI-H358 cells express KRAS G12C; assay: Phospho-ERK1/2(THR202/TYR204) HTRF assay; format: cell-based; conditions: Homo sapiens; NCI-H358, 2 hours incubation; read-out: p-ERK inhibition in NCI-H358 IC50
Description: NCI-H358 cells express KRAS G12C were cultured in RPMI 1640 medium (Gibco) containing 10% fetal bovine serum (Gibco). Cells in culture medium were plated in 96-well plates at a concentration of 40,000 cells/well and allowed to attach overnight. The next day, culture medium was removed and added compounds diluted in assay medium (RPMI 1640, 0.1% EFBS). After 2 hours incubation in a 37° C./5% CO2 cell incubator, the assay medium was removed, then 50 μL of 1× supplemented lysis buffer (Cisbio) was added and the plates were incubated at 25° C. for 45 min with shaking. 10 μL of cell lysates from the 96-well plates were transferred to a 384-well plate (Greiner) containing 2.5 µL/well HTRF® pre-mixed antibodies (Cisbio 64AERPEH).
Incubate 4 hours at 25° C. and then read HTRF signals on Tecan Spark multimode microplate reader. The data were analyzed using a 4-parameter logistic model to calculate IC50 values.

[2] = tested on: NCI-H358 cells express KRAS G12C; assay: Cell growth inhibition assay (CCK-8); format: cell-based; conditions: Homo sapiens, 144 h; NCI-H358, 6 days incubation
Description: 3. Cell Growth inhibition assay
NCI-H358 cells express KRAS G12C were cultured in RPMI 1640 medium (Gibco) containing 10% fetal bovine serum (Gibco). Cells in culture medium were plated in 96-well plates at a concentration of 3000 cells/well ([…]) and allowed to attach overnight. The next day, compounds were diluted in culture medium and added to the plates. After 6 days incubation in a 37° C./5% CO2 cell incubator, the medium was removed, then 100 μL of 1×CCK-8 (MCE) in culture medium was added in each well. The plates were incubated 1.5-2 hours in a 37° C./5% CO2 cell incubator. OD450 signals were read on Tecan Spark multimode microplate reader and analyzed using a 4-parameter logistic model to calculate IC50 values.

T1 sequence (P01116 2-185 isoform P01116-2 G12C): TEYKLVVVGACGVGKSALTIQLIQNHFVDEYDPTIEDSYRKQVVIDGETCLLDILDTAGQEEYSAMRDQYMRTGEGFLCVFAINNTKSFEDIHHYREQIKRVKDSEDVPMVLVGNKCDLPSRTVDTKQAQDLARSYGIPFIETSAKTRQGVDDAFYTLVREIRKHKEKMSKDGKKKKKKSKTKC

Row | SMILES | pIC50 (KRAS G12C) | pIC50 [1] | pIC50 [2]
1 | C=CC(=O)N1CCN(c2nc(OCC3(CN(C)CCN(C)C)CC3)nc3c2CCN(c2cccc4cccc(C)c24)C3)CC1CC#N (stereo not drawn) [Compound 64, 2-(1-acryloyl-4-(2-((1-(((2-(dimethylamino)ethyl)(methyl)amino)methyl)cyclopropyl)methoxy)-7-(8-methylnaphthalen-1-yl)-5,6,7,8-tetrahydropyrido[3,4-d]pyrimidin-4-yl)piperazin-2-yl)acetonitrile] | 8.77 | 6.91 | 7.13
2 | C=CC(=O)N1CCN(c2nc(OCC3(CN4CCC4)CC3)nc3c2CCN(c2cccc4cccc(Cl)c24)C3)CC1CC#N (stereo not drawn) [Compound 42, 2-(1-acryloyl-4-(2-((1-(azetidin-1-ylmethyl)cyclopropyl)methoxy)-7-(8-chloronaphthalen-1-yl)-5,6,7,8-tetrahydropyrido[3,4-d]pyrimidin-4-yl)piperazin-2-yl)acetonitrile] | 8.28 | 7.20 | 6.93
3 | C=C(F)C(=O)N1CCN(c2nc(OCC3(CN4CC(N(C)C)C4)CC3)nc3c2CCN(c2cccc4cccc(C)c24)C3)CC1CC#N (stereo not drawn) [Compound 75, 2-(4-(2-((1-((3-(dimethylamino)azetidin-1-yl)methyl)cyclopropyl)methoxy)-7-(8-methylnaphthalen-1-yl)-5,6,7,8-tetrahydropyrido[3,4-d]pyrimidin-4-yl)-1-(2-fluoroacryloyl)piperazin-2-yl)acetonitrile] | 8.14 | 6.39 | 6.63
4 | Cc1cccc2cccc(N3CCc4c(nc(OCC5(CN6CCCC6)CC5)nc4N4CCN(C(=O)/C=C/CN(C)C)C(CC#N)C4)C3)c12 (stereo not drawn) [Compound 86, (E)-2-(1-(4-(dimethylamino)but-2-enoyl)-4-(7-(8-methylnaphthalen-1-yl)-2-((1-(pyrrolidin-1-ylmethyl)cyclopropyl)methoxy)-5,6,7,8-tetrahydropyrido[3,4-d]pyrimidin-4-yl)piperazin-2-yl)acetonitrile] | < 6.30 | 6.88 | 6.99
5 | C=CC(=O)N1CCN(c2nc(OC3CCCC(N(C)C)C3)nc3c2CCN(c2cccc4ccccc24)C3)CC1CC#N (stereo not drawn) [Compound 10, 2-(1-acryloyl-4-(2-((3-(dimethylamino)cyclohexyl)oxy)-7-(naphthalen-1-yl)-5,6,7,8-tetrahydropyrido[3,4-d]pyrimidin-4-yl)piperazin-2-yl)acetonitrile] | 5.76 | 6.14 | 6.03
6 | C=CC(=O)N1CCN(c2nc(OCC3CCCCC3N(C)C)nc3c2CCN(c2cccc4ccccc24)C3)CC1CC#N (stereo not drawn) [Compound 18, 2-(1-acryloyl-4-(2-((2-(dimethylamino)cyclohexyl)methoxy)-7-(naphthalen-1-yl)-5,6,7,8-tetrahydropyrido[3,4-d]pyrimidin-4-yl)piperazin-2-yl)acetonitrile] | 6.37 | 6.06 | 6.30
7 | C=C(F)C(=O)N1CCN(c2nc(OCC3(CN4CCCC4)CC3)nc3c2CCN(c2cccc4cccc(C)c24)C3)CC1CC#N (stereo not drawn) [Compound 72, 2-(1-(2-fluoroacryloyl)-4-(7-(8-methylnaphthalen-1-yl)-2-((1-(pyrrolidin-1-ylmethyl)cyclopropyl)methoxy)-5,6,7,8-tetrahydropyrido[3,4-d]pyrimidin-4-yl)piperazin-2-yl)acetonitrile] | 7.93 | 6.67 | 6.42
8 | C=CC(=O)N1CCN(c2nc(OCC3(CN4CCCC4)CC3)nc3c2CCN(c2cccc(F)c2C(F)(F)F)C3)CC1CC#N (stereo not drawn) [Compound 34, 2-(1-acryloyl-4-(7-(3-fluoro-2-(trifluoromethyl)phenyl)-2-((1-(pyrrolidin-1-ylmethyl)cyclopropyl)methoxy)-5,6,7,8-tetrahydropyrido[3,4-d]pyrimidin-4-yl)piperazin-2-yl)acetonitrile] | 7.80 | 7.26 | 7.10
9 | C=CC(=O)N1CCN(c2nc(OCC3(CN(C)C)CC3)nc3c2CCN(c2cccc(C)c2C)C3)CC1CC#N (stereo not drawn) [Compound 48, 2-(1-acryloyl-4-(2-((1-((dimethylamino)methyl)cyclopropyl)methoxy)-7-(2,3-dimethylphenyl)-5,6,7,8-tetrahydropyrido[3,4-d]pyrimidin-4-yl)piperazin-2-yl)acetonitrile] | 8.48 | 7.18 | 7.02
10 | C=CC(=O)N1CCN(c2nc(OCC3(CN(C)C)CC3)nc3c2CCN(c2cccc4cccc(Cl)c24)C3)CC1CC#N (stereo not drawn) [Compound 46, 2-(1-acryloyl-4-(7-(8-chloronaphthalen-1-yl)-2-((1-((dimethylamino)methyl)cyclopropyl)methoxy)-5,6,7,8-tetrahydropyrido[3,4-d]pyrimidin-4-yl)piperazin-2-yl)acetonitrile] | 8.59 | 7.83 | 7.57
11 | C=CC(=O)N1CCN(c2nc(OCC3(CN4CC(N(C)C)C4)CC3)nc3c2CCN(c2cccc4cccc(C)c24)C3)CC1CC#N (stereo not drawn) [Compound 59, 2-(1-acryloyl-4-(2-((1-((3-(dimethylamino)azetidin-1-yl)methyl)cyclopropyl)methoxy)-7-(8-methylnaphthalen-1-yl)-5,6,7,8-tetrahydropyrido[3,4-d]pyrimidin-4-yl)piperazin-2-yl)acetonitrile] | 8.96 | 7.24 | 7.21
12 | C=CC(=O)N1CCN(c2nc(OCC3(CN4CCCC4)CCC3)nc3c2CCN(c2cccc4cccc(C)c24)C3)CC1CC#N (stereo not drawn) [Compound 45, 2-(1-acryloyl-4-(7-(8-methylnaphthalen-1-yl)-2-((1-(pyrrolidin-1-ylmethyl)cyclobutyl)methoxy)-5,6,7,8-tetrahydropyrido[3,4-d]pyrimidin-4-yl)piperazin-2-yl)acetonitrile] | 7.88 | 6.66 | 6.23
13 | C=CC(=O)N1CCN(c2nc(OCC3CCCC3N(C)C)nc3c2CCN(c2cccc4cccc(C)c24)C3)CC1CC#N (stereo not drawn) [Compound 23, 2-(1-acryloyl-4-(2-((2-(dimethylamino)cyclopentyl)methoxy)-7-(8-methylnaphthalen-1-yl)-5,6,7,8-tetrahydropyrido[3,4-d]pyrimidin-4-yl)piperazin-2-yl)acetonitrile] | 8.02 | 6.95 | 7.17
14 | C=CC(=O)N1CCN(c2nc(OCC3(CN(C)C)CC3)nc3c2CCN(c2cccc4cccc(C)c24)C3)CC1CC#N (stereo not drawn) [Compound 47, 2-(1-acryloyl-4-(2-((1-((dimethylamino)methyl)cyclopropyl)methoxy)-7-(8-methylnaphthalen-1-yl)-5,6,7,8-tetrahydropyrido[3,4-d]pyrimidin-4-yl)piperazin-2-yl)acetonitrile] | 8.94 | 7.63 | 7.58
15 | C=CC(=O)N1CCN(c2nc(OCC3(CN(C)C)CC3)nc3c2CCN(c2cccc4sccc24)C3)CC1CC#N (stereo not drawn) [Compound 51, 2-(1-acryloyl-4-(7-(benzo[b]thiophen-4-yl)-2-((1-((dimethylamino)methyl)cyclopropyl)methoxy)-5,6,7,8-tetrahydropyrido[3,4-d]pyrimidin-4-yl)piperazin-2-yl)acetonitrile] | 8.48 | 7.11 | 7.00
